Non-standard residues stand in square brackets, D forms with d. Residues, ends and D or L forms follow the SMILES beside them. 1Nal = N[C@@H](Cc1cccc2ccccc12)C(=O)O; Nle = CCCC[C@H](N)C(=O)O; Aib = CC(C)(N)C(=O)O
Target: T1, RXFP1 (Homo sapiens, UniProt Q9HBX9)
T1 sequence (Q9HBX9 1-757): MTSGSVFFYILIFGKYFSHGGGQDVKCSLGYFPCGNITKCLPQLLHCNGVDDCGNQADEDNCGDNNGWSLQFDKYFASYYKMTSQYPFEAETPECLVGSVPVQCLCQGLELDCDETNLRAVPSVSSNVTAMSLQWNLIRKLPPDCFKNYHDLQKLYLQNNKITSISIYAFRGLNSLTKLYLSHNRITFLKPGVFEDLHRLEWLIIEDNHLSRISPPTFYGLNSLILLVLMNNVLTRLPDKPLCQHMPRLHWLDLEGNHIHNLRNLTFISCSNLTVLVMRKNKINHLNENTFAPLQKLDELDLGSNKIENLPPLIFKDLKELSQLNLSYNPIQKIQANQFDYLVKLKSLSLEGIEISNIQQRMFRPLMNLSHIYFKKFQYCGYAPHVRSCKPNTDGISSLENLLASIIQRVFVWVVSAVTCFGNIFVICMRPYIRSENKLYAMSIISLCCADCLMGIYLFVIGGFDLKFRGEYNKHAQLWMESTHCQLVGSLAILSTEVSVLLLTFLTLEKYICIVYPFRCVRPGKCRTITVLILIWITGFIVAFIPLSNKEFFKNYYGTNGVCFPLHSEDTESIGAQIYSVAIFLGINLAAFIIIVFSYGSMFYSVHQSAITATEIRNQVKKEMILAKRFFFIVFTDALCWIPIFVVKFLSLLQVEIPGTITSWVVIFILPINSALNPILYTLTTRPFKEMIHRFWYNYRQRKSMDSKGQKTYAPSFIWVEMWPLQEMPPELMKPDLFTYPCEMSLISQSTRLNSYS
Assay: OVCAR5 cAMP assay (RXFP1 agonist activity, HTRF)
Settings: for Emax: OVCAR-5, read-out: cAMP assay in OVCAR 5 cells Emax, maximal intracellular cAMP relative to H2-relaxin in the same test occasion; for EC50: cAMP assay in OVCAR 5 cells EC50 (nM), OVCAR5 cells expressing endogenous RXFP1, cAMP by HTRF, 30 min at 37° C., 1 mM IBMX

**Q.** With `CC[C@H](C)[C@H](NC(=O)[C@H](CCC(N)=O)NC(=O)[C@H](C)NC(=O)[C@H](CCCNC(=N)N)NC(=O)[C@@H](NC(=O)[C@H](CCCCN)NC(=O)[C@H](CCC(=O)O)NC(=O)[C@H](CCCNC(=N)N)NC(=O)CNC(=O)[C@H](CCC(=O)O)NC(=O)[C@@H](N)CC(C)C)C(C)C)C(=O)NC(C)(C)C(=O)N[C@H](C(=O)N[C@@H](CCC(=O)O)C(=O)NCC(=O)N[C@@H](CCSC)C(=O)N[C@@H](CO)C(=O)N[C@@H](CCCCN)C(=O)N[C@@H](Cc1c[nH]c2ccccc12)C(=O)N[C@@H](CO)C(=O)N[C@@H](CCCCN)C(=O)N[C@@H](CCCNC(=N)N)C(=O)N[C@@H](CCCCN)C(=O)N[C@@H](CCCCN)C(N)=O)[C@@H](C)CC` [compound 6] (H-LEGREKVRAQI[Aib]IEGMSKWSKRKK-NH2) as the compound, how does the Emax read?
**A.** 97%

**Q.** Which Emax does the source give for `CC[C@H](C)[C@H](NC(=O)[C@H](CCC(N)=O)NC(=O)C(C)(C)NC(=O)[C@H](CCCNC(=N)N)NC(=O)[C@@H](NC(=O)[C@H](CCCCN)NC(=O)[C@H](CCC(=O)O)NC(=O)[C@H](CCCNC(=N)N)NC(=O)CNC(=O)[C@H](CCC(=O)O)NC(=O)[C@H](CC(C)C)NC(C)=O)C(C)C)C(=O)NC(C)(C)C(=O)N[C@H](C(=O)N[C@@H](CCC(=O)O)C(=O)NCC(=O)N[C@@H](CCSC)C(=O)N[C@@H](CO)C(=O)N[C@@H](CCCCN)C(=O)N[C@@H](Cc1c[nH]c2ccccc12)C(=O)N[C@@H](CO)C(=O)N[C@@H](CCCCN)C(=O)N[C@@H](CCCNC(=N)N)C(=O)N[C@@H](CCCCN)C(=O)N[C@@H](CCCCN)C(N)=O)[C@@H](C)CC` [compound 7] (Ac-LEGREKVR[Aib]QI[Aib]IEGMSKWSKRKK-NH2) here?
**A.** 101%

**Q.** For `CCCC[C@H](NC(=O)CNC(=O)[C@H](CCC(=O)O)NC(=O)[C@@H](NC(=O)C(C)(C)NC(=O)[C@@H](NC(=O)[C@H](CCC(N)=O)NC(=O)[C@H](C)NC(=O)[C@H](CCCNC(=N)N)NC(=O)[C@@H](NC(=O)[C@H](CCCCN)NC(=O)[C@H](CCC(=O)O)NC(=O)[C@H](CCCNC(=N)N)NC(=O)CNC(=O)[C@H](CCC(=O)O)NC(=O)[C@H](CC(C)C)NC(C)=O)C(C)C)[C@@H](C)CC)[C@@H](C)CC)C(=O)N[C@@H](CO)C(=O)N[C@@H](CCCCN)C(=O)N[C@@H](Cc1c[nH]c2ccccc12)C(=O)N[C@@H](CO)C(=O)N[C@@H](CCCCN)C(=O)N[C@@H](CCCNC(=N)N)C(=O)N[C@@H](CCCCN)C(=O)N[C@@H](CCCCN)C(N)=O` [compound 8] (Ac-LEGREKVRAQI[Aib]IEG[Nle]SKWSKRKK-NH2), which Emax is on record?
**A.** 103%

**Q.** How did the Emax turn out when `CC[C@H](C)[C@H](NC(=O)[C@H](CCC(N)=O)NC(=O)[C@H](C)NC(=O)[C@H](CCCNC(=N)N)NC(=O)[C@@H](NC(=O)[C@H](CCCCN)NC(=O)[C@H](CCC(=O)O)NC(=O)[C@H](CCCNC(=N)N)NC(=O)CNC(=O)[C@H](CCC(=O)O)NC(=O)[C@H](CC(C)C)NC(C)=O)C(C)C)C(=O)NC(C)(C)C(=O)N[C@H](C(=O)N[C@@H](CCC(=O)O)C(=O)NCC(=O)N[C@@H](CCSC)C(=O)N[C@@H](CO)C(=O)N[C@@H](CCCCN)C(=O)N[C@@H](Cc1cccc2ccccc12)C(=O)N[C@@H](CO)C(=O)N[C@@H](CCCCN)C(=O)N[C@@H](CCCNC(=N)N)C(=O)N[C@@H](CCCCN)C(=O)N[C@@H](CCCCN)C(N)=O)[C@@H](C)CC` [compound 9] (Ac-LEGREKVRAQI[Aib]IEGMSK[1Nal]SKRKK-NH2) was run?
**A.** 100%

**Q.** For `CC[C@H](C)[C@H](NC(=O)[C@H](CCC(N)=O)NC(=O)[C@H](C)NC(=O)[C@H](CCCNC(=N)N)NC(=O)[C@@H](NC(=O)[C@H](CCCCN)NC(=O)[C@H](CCC(=O)O)NC(=O)[C@H](CCCNC(=N)N)NC(=O)CNC(=O)[C@H](CCC(=O)O)NC(=O)[C@H](CC(C)C)NC(C)=O)C(C)C)C(=O)NC(C)(C)C(=O)NC(C)(C)C(=O)N[C@@H](CCC(=O)O)C(=O)NCC(=O)N[C@@H](CCSC)C(=O)N[C@@H](CO)C(=O)N[C@H](C(=O)N[C@@H](Cc1c[nH]c2ccccc12)C(=O)N[C@@H](CO)C(=O)N[C@@H](CCCCN)C(=O)N[C@@H](CCCNC(=N)N)C(=O)N[C@@H](CCCCN)C(=O)N[C@@H](CCCCN)C(N)=O)[C@@H](C)O` [compound 10] (Ac-LEGREKVRAQI[Aib][Aib]EGMSTWSKRKK-NH2), which Emax is on record?
**A.** 103%

**Q.** With `CC[C@H](C)[C@H](NC(=O)[C@H](CCC(N)=O)NC(=O)[C@H](C)NC(=O)[C@H](CCCNC(=N)N)NC(=O)[C@@H](NC(=O)[C@H](CCCCN)NC(=O)[C@H](CCC(=O)O)NC(=O)[C@H](CCCNC(=N)N)NC(=O)CNC(=O)[C@H](CCC(=O)O)NC(=O)C(C)(C)NC(C)=O)C(C)C)C(=O)NC(C)(C)C(=O)NC(C)(C)C(=O)N[C@@H](CCC(=O)O)C(=O)NCC(=O)N[C@@H](CCSC)C(=O)N[C@@H](CO)C(=O)N[C@@H](CCCCN)C(=O)N[C@@H](Cc1c[nH]c2ccccc12)C(=O)N[C@@H](CO)C(=O)N[C@@H](CCCCN)C(=O)N[C@@H](CCCNC(=N)N)C(=O)N[C@@H](CCCCN)C(=O)N[C@@H](CCCCN)C(N)=O` [compound 11] (Ac-[Aib]EGREKVRAQI[Aib][Aib]EGMSKWSKRKK-NH2) as the compound, how does the Emax read?
**A.** 102%

**Q.** `CC[C@H](C)[C@H](NC(=O)[C@H](CCC(N)=O)NC(=O)[C@H](C)NC(=O)[C@H](CCCNC(=N)N)NC(=O)[C@@H](NC(=O)[C@H](CCCCN)NC(=O)[C@H](CCC(=O)O)NC(=O)[C@H](CCCNC(=N)N)NC(=O)CNC(=O)[C@H](CCC(=O)O)NC(=O)C(C)(C)N)C(C)C)C(=O)NC(C)(C)C(=O)NC(C)(C)C(=O)N[C@@H](CCC(=O)O)C(=O)NCC(=O)N[C@@H](CCSC)C(=O)N[C@@H](CO)C(=O)N[C@@H](CCCCN)C(=O)N[C@@H](Cc1c[nH]c2ccccc12)C(=O)N[C@@H](CO)C(=O)N[C@@H](CCCCN)C(=O)N[C@@H](CCCNC(=N)N)C(=O)N[C@@H](CCCCN)C(=O)N[C@@H](CCCCN)C(N)=O` [compound 12] (H-[Aib]EGREKVRAQI[Aib][Aib]EGMSKWSKRKK-NH2) was tested. Which Emax did it give?
**A.** 99%

**Q.** For `CCCC[C@H](NC(=O)CNC(=O)[C@H](CCC(=O)O)NC(=O)C(C)(C)NC(=O)C(C)(C)NC(=O)[C@@H](NC(=O)[C@H](CCC(N)=O)NC(=O)[C@H](C)NC(=O)[C@H](CCCNC(=N)N)NC(=O)[C@@H](NC(=O)[C@H](CCCCN)NC(=O)[C@H](CCC(=O)O)NC(=O)[C@H](CCCNC(=N)N)NC(=O)CNC(=O)[C@H](CCC(=O)O)NC(=O)[C@H](CC(C)C)NC(C)=O)C(C)C)[C@@H](C)CC)C(=O)N[C@@H](CO)C(=O)N[C@H](C(=O)N[C@@H](Cc1c[nH]c2ccccc12)C(=O)N[C@@H](CO)C(=O)N[C@@H](CCCCN)C(=O)N[C@@H](CCCNC(=N)N)C(=O)N[C@@H](CCCCN)C(=O)N[C@@H](CCCCN)C(N)=O)[C@@H](C)O` [compound 13] (Ac-LEGREKVRAQI[Aib][Aib]EG[Nle]STWSKRKK-NH2), which Emax is on record?
**A.** 97%

**Q.** For `CCCC[C@H](NC(=O)CNC(=O)[C@H](CCC(=O)O)NC(=O)C(C)(C)NC(=O)C(C)(C)NC(=O)[C@@H](NC(=O)[C@H](CCC(N)=O)NC(=O)[C@H](C)NC(=O)[C@H](CCCNC(=N)N)NC(=O)[C@@H](NC(=O)[C@H](CCCCN)NC(=O)[C@H](CCC(=O)O)NC(=O)[C@H](CCCNC(=N)N)NC(=O)CNC(=O)[C@H](CCC(=O)O)NC(=O)[C@H](CC(C)C)NC(C)=O)C(C)C)[C@@H](C)CC)C(=O)N[C@@H](CO)C(=O)N[C@@H](CCCCN)C(=O)N[C@@H](Cc1cccc2ccccc12)C(=O)N[C@@H](CO)C(=O)N[C@@H](CCCCN)C(=O)N[C@@H](CCCNC(=N)N)C(=O)N[C@@H](CCCCN)C(=O)N[C@@H](CCCCN)C(N)=O` [compound 14] (Ac-LEGREKVRAQI[Aib][Aib]EG[Nle]SK[1Nal]SKRKK-NH2), which Emax is on record?
**A.** 106%

**Q.** And the EC50?
**A.** 32.8 nM

**Q.** `CCCC[C@H](NC(=O)CNC(=O)[C@H](CCC(=O)O)NC(=O)C(C)(C)NC(=O)C(C)(C)NC(=O)[C@@H](NC(=O)[C@H](CCC(N)=O)NC(=O)[C@H](C)NC(=O)[C@H](CCCNC(=N)N)NC(=O)[C@@H](NC(=O)[C@H](CCCCN)NC(=O)[C@H](CCC(=O)O)NC(=O)[C@H](CCCNC(=N)N)NC(=O)CNC(=O)[C@H](CCC(=O)O)NC(=O)[C@H](CC(C)C)NC(C)=O)C(C)C)[C@@H](C)CC)C(=O)N[C@@H](CO)C(=O)N[C@H](C(=O)N[C@@H](Cc1cccc2ccccc12)C(=O)N[C@@H](CO)C(=O)N[C@@H](CCCCN)C(=O)N[C@@H](CCCNC(=N)N)C(=O)N[C@@H](CCCCN)C(=O)N[C@@H](CCCCN)C(N)=O)[C@@H](C)O` [compound 15] (Ac-LEGREKVRAQI[Aib][Aib]EG[Nle]ST[1Nal]SKRKK-NH2) was tested. Which Emax did it give?
**A.** 104%

**Q.** And the EC50?
**A.** 24.4 nM

**Q.** `CC[C@H](C)[C@H](NC(=O)[C@H](C)NC(=O)[C@H](C)NC(=O)[C@H](CCCNC(=N)N)NC(=O)[C@@H](NC(=O)[C@H](CCCCN)NC(=O)[C@H](CCC(=O)O)NC(=O)[C@H](CCCNC(=N)N)NC(=O)CNC(=O)[C@H](CCC(=O)O)NC(=O)[C@H](CC(C)C)NC(C)=O)C(C)C)C(=O)NC(C)(C)C(=O)NC(C)(C)C(=O)N[C@@H](CCC(=O)O)C(=O)NCC(=O)N[C@@H](CCSC)C(=O)N[C@@H](CO)C(=O)N[C@H](C(=O)N[C@@H](Cc1c[nH]c2ccccc12)C(=O)N[C@@H](CO)C(=O)N[C@@H](CCCCN)C(=O)N[C@@H](CCCNC(=N)N)C(=O)N[C@@H](CCCCN)C(=O)N[C@@H](CCCCN)C(N)=O)[C@@H](C)O` [compound 16] (Ac-LEGREKVRAAI[Aib][Aib]EGMSTWSKRKK-NH2) was tested. Which Emax did it give?
**A.** 101%

**Q.** What about the EC50 of the same compound?
**A.** ≤ 5 nM
